Data on 1 compound can be found in paper PMC8422859, “A Novel Oral Arginase 1/2 Inhibitor Enhances the Antitumor Effect of PD-1 Inhibition in Murine Experimental Gliomas by Altering the Immunosuppressive Environment” (Frontiers in Oncology, 2021).

The test system of one data set is U87-MG glioma cells. Nature of the data set: Matrigel invasion assay, U87-MG co-cultured with BV2 microglia. The data set is classed as cell-based, human. The protocol: BV2 cells were plated onto a 24-well plate at the density of 4×10^4. After 24 h, the invasion assay was performed with tissue culture inserts (6.5 mm Transwell® with 8.0 µm Pore Polycarbonate Membrane Insert, Corning, NY, USA) coated with the Growth Factor Reduced Matrigel™ Matrix (BD Biosciences, San Diego. CA, USA). The Matrigel™ Matrix (50 µL of 1 mg/mL stock solution diluted in fresh DMEM) was dried under sterile conditions (37°C) for 5–6 h. The medium in BV2 cultures was replaced with fresh one 1 h before seeding glioblastoma cells onto the inserts, then LN18 and U87 glioblastoma cells were seeded at 2×10^4/insert on Matrigel-covered membranes in a serum-reduced medium (2% FBS). Untreated glioblastoma cells co-cultured with or without BV2 cells served as positive and negative controls, respectively. Cells were treated with the arginase-1 inhibitors OAT-90, OAT-1617 and OAT-1746 solved in PBS. The cultures were kept in incubator at 37°C with humidified air containing 5% CO2. After 18 h cells were fixed in ice-cold methanol and cell nuclei stained with DAPI (4′,6-Diamidino-2-Phenylindole; 1 µg/mL, Sigma). The membranes from Transwell® inserts were cut out and images were acquired using a fluorescence microscope (Leica DM4000B, 10x lens) from the 5 independent fields (bottom; top; left; right side and the middle). Numbers of invading cells were counted using the ImageJ software (NIH, Bethesda, MD, USA). All experiments were performed three times, in duplicates.

The test system of data set [1] is U87-MG human glioma cells. The experiment in a line: MTT viability assay, U87-MG. The data set is classed as cell-based. Particulars: 24 h. The protocol: (§1) Cell viability was assessed using MTT metabolism assay (U87 and BV2 cells) or MTS CellTiter 96® AQueous One Solution Cell Proliferation Assay (Promega) for the primary murine microglia cultures. Cells were cultured either in 96-well plates (U87 at density of 1×10^4) or 24-well plates (BV2 at density of 4×10^4 and primary microglia 8×10^4) with the indicated concentrations of the inhibitor or H2O (vehicle) for 24 h. MTT solution (Sigma Aldrich) was added to each well to a final concentration of 0.5 mg/mL. After 1 h of incubation at 37°C, water-insoluble dark blue formazan crystals were dissolved in DMSO. Optical densities (OD) were measured at 570 and 620 nm using a scanning multiwell spectrophotometer. The MTT assay was performed according to the manufacturer’s protocol. All measurements were carried out on three independent cell passages, in triplicates.
(Tetrazolium dyes change colour on reduction, which living cells bring about.)

For the next data set, the system named is BV2 microglial cells. The experiment in a line: MTT viability assay, BV2. It counts as cell-based, mouse. Particulars: 24 h, concentrations up to 1000 µM. The protocol:
as §1

A further data set has as its system primary murine microglia. Nature of the data set: Viability assay, primary microglia. It counts as cell-based, mouse. The conditions noted are these: 24 h, concentrations up to 1000 µM. The protocol: as §1
Data set [2] can be described thus: Drug concentration in brain by LC-MS. The data set is classed as in vivo, mouse. Particulars: GL261-bearing mice, 50 mg/kg oral twice a day, 14 days, 2 h after last dose. The protocol: (§2) Blood plasma, as well as the brain samples (from control and treated animals), were prepared for liquid chromatography coupled with mass spectrometry (LC-MS) by homogenization in 5% trichloroacetic acid (TCA) and the concentration of L-arginine – the substrate of arginase – was determined. In the urea cycle, arginase cleaves arginine to produce urea and ornithine. Ornithine reacts with carbamoyl phosphate to form citrulline. The brain homogenates prepared for arginine measurements, as well as plasma samples were also analyzed by LC-MS to determine the concentration of the drug, which was administered to animals 2 h before the euthanasia.

For data set [3], the system named is L-arginine (substrate of arginase). The experiment in a line: L-arginine concentration in brain and plasma by LC-MS. Particulars: GL261-bearing mice, 50 mg/kg oral twice a day, day 14, 2 h after last dose. The data set is classed as in vivo, mouse. The protocol:
as §2

Another data set has as its system plasma cytokines. Nature of the data set: Plasma cytokine analysis (Milliplex/MAGPIX). It counts as in vivo, mouse. Particulars: blood collected 2 h after last administration of OAT-1746. The protocol: Measurement of pro- and anti-inflammatory cytokines was performed in blood from control and treated animals. Blood was quickly collected to EDTA containing tubes before perfusion and centrifuged (10,000 × g) for 10 min at room temperature. The plasma was collected and stored at -80°C. The levels of cytokines were measured using the Milliplex Kit (Merk-Millipore, Germany) according to the protocol. Cytokine levels were determined using the MAGPIX Multiplexing Instrument (Luminex, TX, USA) with XPonent software and analyzed with Milliplex Analyst 5.1 software. Results were expressed as pg/mL for each cytokine.

The test system of a further data set is non-CNS tumor models. The conditions noted are these: cited from earlier work.

Entries after “also recorded” stand apart in the source; their conditions may differ.

Consider `CN(C)C[C@@H]1CC[C@@H](CCB(O)O)C[C@]1(N)C(=O)O` [OAT-1746], for which the “microglia-induced invasion of U87-MG cells” value in the data set with U87-MG glioma cells (11 µM, co-culture with BV2, 18 h) was “effectively reduced glioma invasion; also recorded: reduced microglia-induced invasion of glioma cells more efficiently”. The “concentration dependence of the inhibitory effect on glioma invasion” value with U87-MG glioma cells (0.1 and 11 µM, U87-MG with BV2) was “concentration-dependent”. For the same compound, the “reduction of the cell viability in U87-MG glioma cells” value in data set [1] (1 mM) was found to be 20%. In addition, in data set [1] (concentrations up to 1000 µM), the “viability of U87-MG cells (toxicity)” value is “a decrease in the viability of U87-MG cells was observed at the highest concentration”. Further, the “viability of BV2 microglial cells (toxicity)” value in the data set on BV2 microglial cells was “not toxic”. For the same compound, the “viability of primary murine microglia (toxicity)” value in the data set on primary murine microglia is reported as “not toxic”. The “OAT-1746 in the brain (crossing of the BBB)” value in data set [2] was “detected in the brain extracts”. Besides, in data set [3], the “arginine concentration in the blood plasma” value was “increase of arginine concentration” and the “arginine concentration in the brain” value was “increase of arginine concentration”. For the same compound, in the data set with plasma cytokines, the “plasma levels of CCL2” value is given as “higher levels” and the “plasma levels of CCL5” value was “reduced”. Further, in the data set with non-CNS tumor models, the “antitumor efficacy in non-CNS tumor models” value is recorded as “significant antitumor efficacy”. For the same compound, in the data set with non-CNS tumor models (multiple oral dosing, mono- or combinatorial therapies, other tumor models), the “toxicity in experimental animals” value is “no toxicity”.
